The text below walks through data of BindingDB's records for doi:10.1016/j.bmc.2010.01.055 (Chinese Academy of Sciences, 2010).

The target of the assay is Receptor-type tyrosine-protein phosphatase alpha (PTPRA) (Homo sapiens) (UniProt P18433). Kind of assay: Inhibition of PTPalpha expressed in Escherichia coli BL21 (DE3) after 10 mins by spectrophotometry.

For orientation: IC50 means the midpoint of a concentration-inhibition curve. High values mean a need for much substance, low ones inhibition by little substance.

Chain of Receptor-type tyrosine-protein phosphatase alpha (PTPRA) (Homo sapiens) (P18433 whole entry, looked up): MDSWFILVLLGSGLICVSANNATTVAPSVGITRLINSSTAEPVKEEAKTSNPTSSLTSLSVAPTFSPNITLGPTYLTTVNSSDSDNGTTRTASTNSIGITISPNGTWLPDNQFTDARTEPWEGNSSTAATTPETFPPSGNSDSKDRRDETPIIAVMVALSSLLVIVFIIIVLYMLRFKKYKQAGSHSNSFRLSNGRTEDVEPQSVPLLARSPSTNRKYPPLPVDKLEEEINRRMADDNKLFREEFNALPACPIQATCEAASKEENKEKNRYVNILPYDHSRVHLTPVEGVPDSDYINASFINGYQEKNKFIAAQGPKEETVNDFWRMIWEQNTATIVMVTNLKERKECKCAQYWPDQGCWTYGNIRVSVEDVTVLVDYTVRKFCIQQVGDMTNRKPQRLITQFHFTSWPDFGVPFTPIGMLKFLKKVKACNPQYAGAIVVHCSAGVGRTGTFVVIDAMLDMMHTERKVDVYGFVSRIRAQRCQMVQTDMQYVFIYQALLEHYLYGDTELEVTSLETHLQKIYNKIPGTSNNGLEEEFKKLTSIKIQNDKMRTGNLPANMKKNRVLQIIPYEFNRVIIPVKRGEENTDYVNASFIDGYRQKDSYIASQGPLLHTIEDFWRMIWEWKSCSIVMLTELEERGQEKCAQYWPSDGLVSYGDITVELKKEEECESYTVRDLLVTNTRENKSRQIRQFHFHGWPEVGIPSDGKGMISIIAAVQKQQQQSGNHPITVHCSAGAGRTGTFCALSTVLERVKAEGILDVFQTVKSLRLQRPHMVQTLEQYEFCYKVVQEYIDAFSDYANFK

`CCOC(=O)c1c(-c2ccc(-c3ccc(F)c(Cl)c3)cc2)csc1NC(=O)c1ccccc1C(=O)O` [2-(2-Carboxy-benzoylamino)-4-(30-chloro-40-fluorobiphenyl-4-yl)-thiophene-3-carboxylic acid ethyl ester] showed an IC50 of 23.1 µM.

For the compound `CC(C)OC(=O)c1c(-c2ccc(-c3ccccc3)cc2)csc1NC(=O)C1C2C=CC(C2)C1C(=O)O` (centres undefined) [4-Biphenyl-4-yl-2-[(3-carboxy-bicyclo[2.2.1]hept-5-ene-2-carbonyl)-amino]-thiophene-3-carboxylic acid isopropylester], the IC50 is over 100 µM.

On to `CCc1oc2cc(S(=O)(=O)Nc3nccs3)ccc2c1C(=O)c1cc(Br)c(O)c(Br)c1` [3-(3,5-dibromo-4-hydroxybenzoyl)-2-ethyl-N-(thiazol-2-yl)benzofuran-6-sulfonamide], for which the IC50 was over 100 µM.

The compound `CC(C)OC(=O)c1c(-c2ccc(-c3ccc(Cl)cc3)cc2)csc1NC(=O)C1C2C=CC(C2)C1C(=O)O` (centres undefined) [2-[(3-Carboxy-bicyclo[2.2.1]hept-5-ene-2-carbonyl)-amino]-4-(4'-chloro-biphenyl-4-yl)-thiophene-3-carboxylicacid isopropyl ester] showed an IC50 of over 100 µM.
